Source: US9988343B2, “Inhibitors of histone deacetylase” (Dana-Farber Cancer Institute, Inc., priority 2013, dated 2018)
Read-outs that look alike come from different tables or passages of the source.

Tests used:
RPMI8226 cells [1] = experiment: Combination with carfilzomib, MTT assay; assay type: cell-based, human; conditions: RPMI8226, Compound 10 5, 10, 20 um + carfilzomib 3, 5, 7.5 nM, 24 h (FIG. 10)
Description: All experiments were performed 3 times in quadruplicate. Data represent mean+/−SD (FIG. 10). The y-axis (% control) indicates the relative number of viable cells after each treatment.

[2] = system: MM.1S cells co-cultured with BMSCs; experiment: 3[H]-thymidine incorporation, MM.1S co-cultured with BMSCs; assay type: cell-based, human; conditions: 7.5, 15, 30 μM, 48 hours (FIG. 6D)
Description: To measure proliferation of MM cells, the rate of DNA synthesis was measured by ^3[H]-thymidine (Perkin-Elmer) uptake. […] Cell proliferation was measured by 3[H]-thymidine incorporation assay. Data represent mean±SD from quadruplicate cultures (FIG. 6D).

HDAC1 = HDAC1 (Homo sapiens, UniProt Q13547); experiment: HDAC1 inhibitory activity (IC50); assay type: biochemical
Description: (§1) HDAC inhibitor compounds designed and synthesized in accordance with the present invention were tested for their inhibitor activity against several different HDAC isoforms.

PBMCs = experiment: MTT growth assay in normal donor PBMCs; assay type: cell-based, human; conditions: 7.5, 15, 30 μM, 72 hours, MTT (FIG. 6C)
Description: BM specimens were obtained from patients with MM, and mononuclear cells (MNCs) were separated by Ficoll-Hipaque density sedimentation. Primary CD138+ plasma cells from MM patients were obtained using negative selection, as in previous studies. […] CD138-BMMNCs were used to establish long-term BMSC cultures, as previously described. […] Peripheral blood mononuclear cells were collected from healthy volunteers to obtain mononuclear cells (PBMCs). All procedures were performed with IRB-approved (Dana-Farber Cancer Institute) protocols and informed consent, and in accordance with the Declaration of Helsinki protocol. […] Cell growth was then assessed by MTT assay. Data represents mean±SD from triplicates cultures (FIG. 6B). […] Cell growth was assessed by MTT assay. The data represents mean±SD from triplicate cultures (FIG. 6C).

HDAC6 [3] = target: T1, HDAC6 (Homo sapiens, UniProt Q9UBN7); experiment: HDAC6 inhibitory activity (IC50); assay type: biochemical
T1 sequence (Q9UBN7 1-1215): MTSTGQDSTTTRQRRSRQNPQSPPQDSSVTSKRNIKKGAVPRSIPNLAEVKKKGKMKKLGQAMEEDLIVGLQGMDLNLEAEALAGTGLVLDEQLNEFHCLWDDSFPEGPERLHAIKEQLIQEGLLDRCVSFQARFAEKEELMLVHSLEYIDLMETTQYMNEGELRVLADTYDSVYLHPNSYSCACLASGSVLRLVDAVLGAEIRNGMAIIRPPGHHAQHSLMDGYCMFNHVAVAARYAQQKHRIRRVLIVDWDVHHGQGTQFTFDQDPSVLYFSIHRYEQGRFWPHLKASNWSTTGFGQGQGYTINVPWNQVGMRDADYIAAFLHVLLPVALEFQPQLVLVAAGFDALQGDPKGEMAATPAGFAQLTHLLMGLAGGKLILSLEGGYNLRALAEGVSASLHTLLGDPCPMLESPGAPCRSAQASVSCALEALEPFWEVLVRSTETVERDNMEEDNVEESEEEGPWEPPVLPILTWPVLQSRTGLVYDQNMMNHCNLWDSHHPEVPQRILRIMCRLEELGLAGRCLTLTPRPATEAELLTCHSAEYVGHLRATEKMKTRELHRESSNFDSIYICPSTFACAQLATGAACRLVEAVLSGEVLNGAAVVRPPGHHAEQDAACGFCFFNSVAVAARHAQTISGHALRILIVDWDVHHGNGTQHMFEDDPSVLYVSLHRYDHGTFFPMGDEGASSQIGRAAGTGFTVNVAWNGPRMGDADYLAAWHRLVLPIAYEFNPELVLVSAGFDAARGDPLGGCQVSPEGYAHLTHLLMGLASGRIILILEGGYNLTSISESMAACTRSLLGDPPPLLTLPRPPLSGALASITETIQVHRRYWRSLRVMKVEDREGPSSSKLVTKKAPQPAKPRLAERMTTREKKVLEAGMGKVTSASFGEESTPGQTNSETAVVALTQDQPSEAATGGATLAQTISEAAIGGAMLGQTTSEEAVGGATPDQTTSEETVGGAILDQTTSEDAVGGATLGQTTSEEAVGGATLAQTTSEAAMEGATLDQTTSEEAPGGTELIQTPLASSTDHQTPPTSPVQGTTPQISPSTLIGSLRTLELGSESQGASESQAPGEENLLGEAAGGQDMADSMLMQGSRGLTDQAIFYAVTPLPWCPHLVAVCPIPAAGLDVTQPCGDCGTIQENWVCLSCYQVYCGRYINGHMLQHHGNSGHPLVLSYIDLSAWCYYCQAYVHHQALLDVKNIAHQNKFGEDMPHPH
Description: as §1

RPMI8226 cells [4] = experiment: Combination with bortezomib, MTT cytotoxicity, combination index; assay type: cell-based, human; conditions: for CI (combination index): RPMI8226, MTT, 24 h
Description: The combined effect of drugs was analyzed by isobologram analysis using the Compusyn software program (ComboSyn, Inc.); a combination index (CI)<1 is indicative of a synergistic effect.
All experiments were performed 3 times in quadruplicate. Data represent mean±SD (FIG. 7D).

HDAC6 [5] = target: T1, HDAC6; experiment: Western blot for acetylated alpha-tubulin (HDAC6 inhibition in cells); assay type: cell-based; conditions: 10 or 20 um (FIG. 8A)
pERK1/2 (Thr202/204) = experiment: Immunoblot of ERK phosphorylation; assay type: cell-based, human; conditions: MM.1S, 10 and 20 μM, 10 hours, then IL-6 10 ng/mL 4 hours (FIG. 6G)
MM.1S cells = experiment: Immunoblot of histone and α-tubulin acetylation in MM.1S cells; assay type: cell-based, human; conditions: 12 h, Compound 10 10 and 20 μM

Chain of HDAC1 (Q13547 whole entry): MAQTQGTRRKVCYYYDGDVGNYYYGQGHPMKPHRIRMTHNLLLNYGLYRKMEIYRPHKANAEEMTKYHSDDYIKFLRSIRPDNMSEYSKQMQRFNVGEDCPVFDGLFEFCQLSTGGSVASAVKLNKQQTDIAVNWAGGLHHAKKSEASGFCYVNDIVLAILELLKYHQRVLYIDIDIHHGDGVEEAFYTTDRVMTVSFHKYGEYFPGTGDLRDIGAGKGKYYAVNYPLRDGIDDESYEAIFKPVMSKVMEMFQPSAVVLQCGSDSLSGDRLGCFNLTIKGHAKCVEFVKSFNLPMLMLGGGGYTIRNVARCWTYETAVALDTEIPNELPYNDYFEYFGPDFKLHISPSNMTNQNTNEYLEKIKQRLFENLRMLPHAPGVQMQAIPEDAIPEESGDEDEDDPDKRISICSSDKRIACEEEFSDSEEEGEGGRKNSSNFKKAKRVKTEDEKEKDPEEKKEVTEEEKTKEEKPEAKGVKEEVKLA

Nc1ccccc1NC(=O)c1cnccn1 [Compound 10, N-(2-aminophenyl)pyrazine-2-carboxamide]
cytotoxicity induced by carfilzomib (RPMI8226 cells [1]): enhanced the cytotoxicity of carfilzomib | MM cell proliferation in the presence of BMSCs [2]: markedly inhibited MM cell growth even in the presence of BMSCs | IC50 (HDAC1; Table 2, read-out: HDAC1): 0.922 µM | IC50 (HDAC1; Table 3, read-out: IC50 against the deacetylase activity of HDAC1): 2 µM | growth of normal donor PBMCs (PBMCs): without affecting normal donor PBMCs | IC50 (HDAC6 [3]; Table 2, read-out: HDAC6): 79 µM | IC50 (HDAC6 [3]; Table 3, read-out: IC50 against the deacetylase activity of HDAC6): > 20 µM | CI (combination index) (RPMI8226 cells [4]; BG45 5 μM + bortezomib 2 nM): 1.04 | CI (combination index) (RPMI8226 cells [4]; BG45 5 μM + bortezomib 3 nM): 0.83 | CI (combination index) (RPMI8226 cells [4]; BG45 5 μM + bortezomib 4 nM): 0.84 | CI (combination index) (RPMI8226 cells [4]; BG45 10 μM + bortezomib 2 nM): 1.19 | CI (combination index) (RPMI8226 cells [4]; BG45 10 μM + bortezomib 3 nM): 0.78 | CI (combination index) (RPMI8226 cells [4]; BG45 10 μM + bortezomib 4 nM): 0.77 | CI (combination index) (RPMI8226 cells [4]; BG45 20 μM + bortezomib 2 nM): 0.91 | CI (combination index) (RPMI8226 cells [4]; BG45 20 μM + bortezomib 3 nM): 0.67 | CI (combination index) (RPMI8226 cells [4]; BG45 20 μM + bortezomib 4 nM): 0.63 | bortezomib-induced cytotoxicity (RPMI8226 cells [4]; RPMI8226, bortezomib 2-4 nM + 5, 10, 20 μM Compound 10, 24 h (FIG. 7D)): synergistically enhanced bortezomib-induced cytotoxicity | inhibition of HDAC6 by acetylated alpha-tubulin Western blot (HDAC6 [5]): did not inhibit HDAC6 | p-ERK1/2 (pERK1/2 (Thr202/204)): without affecting p-ERK1/2 | histone acetylation (MM.1S cells; LBH589 50 and 100 nM (FIG. 6F left)): significantly induced acetylation of histone H2A, H3, and H4 | α-tubulin acetylation (biomarker of HDAC6 inhibition) (MM.1S cells; LBH589 50 and 100 nM (FIG. 6F right)): did not increase α-tubulin acetylation
